# Experimental data published in patent publication US20230090742A1, “AMINOPYRIMIDINYLAMINOBENZONITRILE DERIVATIVES AS NEK2 INHIBITORS” (Sumitomo Pharma Oncology, Inc., priority 2020, published 2023).
# System: phosphorylation of PP1α and HEC1
# Assay: Western blot analysis for phospho-PP1α and phospho-Hec1 in cell cycle synchronized MDA-MB-231 cells
# Format: cell-based
# Conditions: double thymidine block and nocodazole, 10, 50, 100, and 500 nM
# Procedure: Reagents. MDA-MB-231 (Breast adenocarcinoma, triple negative breast cancer) and SW480 (colorectal adenocarcinoma, stem-like subtype) cells were purchased from ATCC and cultured as per manufacturer's instruction. Thymidine (Sigma, T9250) stock solution (100 mM) was prepared in PBS. 2′-Deoxycytidine (Sigma, D897) stock solution (240 mM) was prepared in distilled H2O. Nocodazole (Selleck Chemicals, S2775) stock solution (5 mg/mL) was made in dimethyl sulfoxide (DMSO). FxCycle Far Red stain (F10348) for cell cycle analysis was purchased from Thermo Fisher Scientific.
# Antibodies. […]
# Cell Cycle Synchronization. […] Effectiveness of NEK2 inhibitors (Cmpd-16 and Cmpd-18) were assessed by adding small molecule inhibitors with nocodozole at 10, 50, 100, and 500 nM concentration at the time of nocodazole addition. […]
# Immunoblot Analysis. […] Whole cell lysates were sonicated and centrifuged at 16000×g for 10 minutes at 4° C., and protein concentration of the supernatant were determined using BCA Protein assay kit (ThermoScientific, 23225). Equal amounts of protein lysates (30 μg/lane and 10 μg/lane only for Histone H3 immunoblots) were fractionated on a NuPAGE Novex 4%-12% Bis-Tris Protein Gel (Thermo Fisher Scientific, NP0335BOX) and transferred onto a low fluorescence PVDF membrane (Millipore, IPFL07810). […] Li-Cor Image Studio software was used for western blot analysis and quantification
structure (smiles),measurement,value
"N#Cc1c(Nc2nc(Nc3ccc(N4CCNCC4)cc3)ncc2Cl)cccc1OCc1ccccc1F [Compound 16, 2-((5-chloro-2-((4-(piperazin-1-yl)phenyl)amino)pyrimidin-4-yl)amino)-6-((2-fluorobenzyl)oxy)benzonitrile]",phosphorylation of PP1α and HEC1 (HistoneH3 phosphorylation as marker of mitosis),more specifically inhibited phosphorylation of PP1α and HEC1 without interfering in cell cycle progression than Cmpd-18
